As a reminder, the IC50 is the midpoint of a concentration-inhibition curve. Lower therefore signals inhibition by little substance.

Sequence of IRE1α (O75460 547-977 D688N): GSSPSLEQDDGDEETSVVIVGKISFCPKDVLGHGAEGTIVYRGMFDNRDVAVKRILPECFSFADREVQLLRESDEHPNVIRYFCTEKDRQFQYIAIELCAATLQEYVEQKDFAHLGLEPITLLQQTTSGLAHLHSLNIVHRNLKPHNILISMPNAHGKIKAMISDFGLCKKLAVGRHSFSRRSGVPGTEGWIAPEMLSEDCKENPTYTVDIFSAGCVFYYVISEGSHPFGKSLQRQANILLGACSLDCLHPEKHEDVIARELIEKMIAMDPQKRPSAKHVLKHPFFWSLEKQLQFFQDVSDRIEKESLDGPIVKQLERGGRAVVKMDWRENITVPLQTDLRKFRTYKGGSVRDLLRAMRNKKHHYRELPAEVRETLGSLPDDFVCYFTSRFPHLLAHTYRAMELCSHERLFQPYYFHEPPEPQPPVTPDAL

The target of the test is IRE1α (Homo sapiens (Human), UniProt O75460, D688N). Description: IRE1α TR-FRET competition binding assay (IRE1α HTRF). The conditions noted are these: TR-FRET competition binding to kinase domain of IRE1α. In outline:
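Competition of compounds against an Alexa fluor 647 ATP-site probe (2 nM final) for the His-tagged kinase domain (0.25 nM final), detected via 2 nM Eu anti-His antibody by TR-FRET, 665 and 615 nm emission. Protein–antibody premix 1 h, 4° C; reaction 1 h, room temperature, pH 7.5 HEPES buffer.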
In general terms: In TR-FRET formats the signal depends on donor and acceptor labels being close together.
`CC(C)n1c(=O)c(-c2ccc(NS(=O)(=O)c3ccccc3Cl)c(F)c2)nc2cnc(N[C@@H]3CNC[C@@H](F)C3)nc21` [Compound 75, 2-Chloro-N-[2-fluoro-4-[2-[[(3S,5S)-5-fluoro-3-piperidyl]amino]-8-isopropyl-7-oxo-pteridin-6-yl]phenyl]benzenesulfonamide] showed an IC50 of 0.3 nM.

On to `CC(C)n1c(=O)c(-c2ccc(NS(=O)(=O)CCC(F)(F)F)c(F)c2)nc2cnc(N[C@@H]3CNC[C@H](CF)C3)nc21` [Compound 76, 3,3,3-Trifluoro-N-[2-fluoro-4-[2-[[(3S,5R)-5-(fluoromethyl)-3-piperidyl]amino]-8-isopropyl-7-oxo-pteridin-6-yl]phenyl]propane-1-sulfonamide], for which the IC50 was 0.9 nM.

`CC(C)n1c(=O)c(-c2ccc(NS(=O)(=O)CCC(C)(F)F)c(F)c2)nc2cnc(N[C@@H]3CNC[C@H](CF)C3)nc21` [Compound 77, 3,3-Difluoro-N-[2-fluoro-4-[2-[[(3S,5R)-5-(fluoromethyl)-3-piperidyl]amino]-8-isopropyl-7-oxo-pteridin-6-yl]phenyl]butane-1-sulfonamide] returned an IC50 of 0.8 nM.

`CC(C)n1c(=O)c(-c2ccc(NS(=O)(=O)CCC(F)F)c(F)c2)nc2cnc(N[C@@H]3CNC[C@H](CF)C3)nc21` [Compound 78, 3,3-Difluoro-N-[2-fluoro-4-[2-[[(3S,5R)-5-(fluoromethyl)-3-piperidyl]amino]-8-isopropyl-7-oxo-pteridin-6-yl]phenyl]propane-1-sulfonamide] returned an IC50 of 1 nM.

Consider `CCCS(=O)(=O)Nc1ccc(-c2nc3cnc(N[C@@H]4CNC[C@H](CF)C4)nc3n(C(C)C)c2=O)cc1F` [Compound 79, N-[2-Fluoro-4-[2-[[(3S,5R)-5-(fluoromethyl)-3-piperidyl]amino]-8-isopropyl-7-oxo-pteridin-6-yl]phenyl]propane-1-sulfonamide], for which the IC50 came out at 1.5 nM.

Turning to `CC(C)n1c(=O)c(-c2ccc(NS(=O)(=O)Cc3ccccc3C#N)c(F)c2)nc2cnc(N[C@@H]3CNC[C@@H](F)C3)nc21` [Compound 80, 1-(2-Cyanophenyl)-N-[2-fluoro-4-[2-[[(3S,5S)-5-fluoro-3-piperidyl]amino]-8-isopropyl-7-oxo-pteridin-6-yl]phenyl]methanesulfonamide], the IC50 is 0.2 nM.

`CC(C)n1c(=O)c(-c2ccc(NS(=O)(=O)Cc3ccc(C#N)cc3)c(F)c2)nc2cnc(N[C@@H]3CNC[C@@H](F)C3)nc21` [Compound 81, 1-(4-Cyanophenyl)-N-[2-fluoro-4-[2-[[(3S,5S)-5-fluoro-3-piperidyl]amino]-8-isopropyl-7-oxo-pteridin-6-yl]phenyl]methanesulfonamide] returned an IC50 of 0.1 nM.

The molecule `CCCS(=O)(=O)Nc1ccc(-c2nc3cnc(N[C@@H]4CNC[C@@H](F)C4)nc3n(C(C)C)c2=O)cc1F` [Compound 82, N-[2-Fluoro-4-[2-[[(3S,5S)-5-fluoro-3-piperidyl]amino]-8-isopropyl-7-oxo-pteridin-6-yl]phenyl]propane-1-sulfonamide] came in with an IC50 of 0.8 nM.

Molecule `CCC(F)(F)CS(=O)(=O)Nc1ccc(-c2nc3cnc(N[C@@H]4CNC[C@@H](F)C4)nc3n(C(C)C)c2=O)cc1F` [Compound 83, 2,2-Difluoro-N-[2-fluoro-4-[2-[[(3S,5S)-5-fluoro-3-piperidyl]amino]-8-isopropyl-7-oxo-pteridin-6-yl]phenyl]butane-1-sulfonamide] gave an IC50 of 0.4 nM.

On to `CC(C)n1c(=O)c(-c2ccc(NS(=O)(=O)CCC(C)(F)F)c(F)c2)nc2cnc(N[C@@H]3CNC[C@@H](F)C3)nc21` [Compound 84, 3,3-Difluoro-N-[2-fluoro-4-[2-[[(3S,5S)-5-fluoro-3-piperidyl]amino]-8-isopropyl-7-oxo-pteridin-6-yl]phenyl]butane-1-sulfonamide], for which the IC50 stood at 0.4 nM.

For `CC(C)n1c(=O)c(-c2cc(NS(=O)(=O)CCC(F)(F)F)nn2C)cc2cnc(N[C@@H]3CNC[C@@H](F)C3)nc21` [Compound 85], the IC50 was determined as 16 nM.

`CC(C)n1c(=O)c(-c2cc(F)c(NS(=O)(=O)Cc3ccccc3F)c(F)c2F)cc2cnc(N[C@@H]3CNC[C@@H](F)C3)nc21` [Compound 86, 1-(2-Fluorophenyl)-N-(2,3,6-trifluoro-4-(2-(((3S,5S)-5-fluoropiperidin-3-yl)amino)-8-isopropyl-7-oxo-7,8-dihydropyrido[2,3-d]pyrimidin-6-yl)phenyl)methanesulfonamide] displayed an IC50 of 0.16 nM.

In turn, `CC(C)n1c(=O)c(-c2cc(F)c(NS(=O)(=O)Cc3ccccc3F)c(F)c2F)cc2cnc(N[C@H]3CNC[C@@H](O)C3)nc21` [Compound 88, 1-(2-Fluorophenyl)-N-(2,3,6-trifluoro-4-(2-(((3R,5S)-5-hydroxypiperidin-3-yl)amino)-8-isopropyl-7-oxo-7,8-dihydropyrido[2,3-d]pyrimidin-6-yl)phenyl)methanesulfonamide] returned an IC50 of 8.5 nM.

`CC(C)n1c(=O)c(-c2cc(F)c(NS(=O)(=O)Cc3ccccc3F)c(F)c2F)cc2cnc(N[C@@H]3CNC[C@H](O)C3)nc21` [Compound 89, 1-(2-fluorophenyl)-N-(2,3,6-trifluoro-4-(2-(((3S,5R)-5-hydroxypiperidin-3-yl)amino)-8-isopropyl-7-oxo-7,8-dihydropyrido[2,3-d]pyrimidin-6-yl)phenyl)methanesulfonamide]: the IC50 amounted to 0.34 nM.

For the molecule `CC(C)n1c(=O)c(-c2ccc(NS(=O)(=O)Cc3ccccc3F)c(F)c2)cc2cnc(N[C@@H]3CNC[C@@H](F)C3)nc21` [Compound 90, N-(2-Fluoro-4-(2-(((3S,5S)-5-fluoropiperidin-3-yl)amino)-8-isopropyl-7-oxo-7,8-dihydropyrido[2,3-d]pyrimidin-6-yl)phenyl)-1-(2-fluorophenyl)methanesulfonamide], the IC50 was 0.21 nM.

Molecule `CC(C)n1c(=O)c(-c2ccc(NS(=O)(=O)CCC(F)(F)F)c(F)c2)cc2cnc(N[C@H]3CC[C@H](N(C)C)CC3)nc21` [Compound 91, N-(4-(2-(((1r,4r)-4-(Dimethylamino)cyclohexyl)amino)-8-isopropyl-7-oxo-7,8-dihydropyrido[2,3-d]pyrimidin-6-yl)-2-fluorophenyl)-3,3,3-trifluoropropane-1-sulfonamide] gave an IC50 of 0.13 nM.

`CC(C)n1c(=O)c(-c2ccc(NS(=O)(=O)CCC(F)(F)F)c(F)c2)cc2cnc(N[C@@H]3CNC[C@@H](F)C3)nc21` [Compound 92, 3,3,3-Trifluoro-N-(2-fluoro-4-(2-(((3S,5S)-5-fluoropiperidin-3-yl)amino)-8-isopropyl-7-oxo-7,8-dihydropyrido[2,3-d]pyrimidin-6-yl)phenyl)propane-1-sulfonamide] displayed an IC50 of 0.3 nM.

`CC(C)n1c(=O)c(-c2ccc(NS(=O)(=O)Cc3ccccc3F)nc2)cc2cnc(N[C@@H]3CNC[C@@H](F)C3)nc21` [Compound 93, 1-(2-Fluorophenyl)-N-(5-(2-(((3S,5S)-5-fluoropiperidin-3-yl)amino)-8-isopropyl-7-oxo-7,8-dihydropyrido[2,3-d]pyrimidin-6-yl)pyridin-2-yl)methanesulfonamide] registered an IC50 of 0.24 nM.

`CC(C)n1c(=O)c(-c2ccc(NS(=O)(=O)Cc3ccccc3F)cn2)cc2cnc(N[C@H]3CC[C@H](N(C)C)CC3)nc21` [Compound 94, N-(6-(2-(((1r,4r)-4-(Dimethylamino)cyclohexyl)amino)-8-isopropyl-7-oxo-7,8-dihydropyrido[2,3-d]pyrimidin-6-yl)pyridin-3-yl)-1-(2-fluorophenyl)methanesulfonamide] showed an IC50 of 0.27 nM.

For the origin of these results see patent US12344603B2 (Genentech, Inc., priority 2020, dated 2025).
